# In patent US20260262643A1, “HERBICIDAL BENZOXAZINES” (FMC CORPORATION, priority 2022, published 2026):
# Legend:
# barnyardgrass [1] = assay: Test C preemergence; type: in vivo, Echinochloa crusgalli; conditions: 0 to 100 scale (0 no effect, 100 complete control)
# Procedure, shortened: (§1)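 Seeds in loam–sand blend received preemergence directed soil spray of test chemicals in non-phytotoxic solvent with surfactant; postemergence treatment was applied at one- to two-leaf stage (2–10 cm). After 10 days in greenhouse, injury rated visually versus untreated controls, 0 (no effect) to 100 (complete control).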
# blackgrass [2] = assay: Test C preemergence; type: in vivo, Alopecurus myosuroides; conditions: 0 to 100 scale (0 no effect, 100 complete control)
# Procedure, shortened: as §1
# corn [3] = assay: Test C preemergence; type: in vivo, Zea mays; conditions: 0 to 100 scale (0 no effect, 100 complete control)
# Procedure, shortened: as §1
# green foxtail [4] = assay: Test C preemergence; type: in vivo, Setaria viridis; conditions: 0 to 100 scale (0 no effect, 100 complete control)
# Procedure, shortened: as §1
# kochia [5] = assay: Test C preemergence; type: in vivo, Bassia scoparia; conditions: 0 to 100 scale (0 no effect, 100 complete control)
# Procedure, shortened: as §1
# oat, wild [6] = assay: Test C preemergence; type: in vivo, Avena fatua; conditions: 0 to 100 scale (0 no effect, 100 complete control)
# Procedure, shortened: as §1
# pigweed, palmer [7] = assay: Test C preemergence; type: in vivo, Amaranthus palmeri; conditions: 0 to 100 scale (0 no effect, 100 complete control)
# Procedure, shortened: as §1
# ragweed [8] = assay: Test C preemergence; type: in vivo, Ambrosia artemisiifolia; conditions: 0 to 100 scale (0 no effect, 100 complete control)
# Procedure, shortened: as §1
# ryegrass, Italian [9] = assay: Test C preemergence; type: in vivo, Lolium multiflorum; conditions: 0 to 100 scale (0 no effect, 100 complete control)
# Procedure, shortened: as §1
# soybean [10] = assay: Test C preemergence; type: in vivo, Glycine max; conditions: 0 to 100 scale (0 no effect, 100 complete control)
# Procedure, shortened: as §1
# wheat [11] = assay: Test C preemergence; type: in vivo, Triticum aestivum; conditions: 0 to 100 scale (0 no effect, 100 complete control)
# Procedure, shortened: as §1
# barnyardgrass [12] = assay: Test C postemergence; type: in vivo, Echinochloa crusgalli; conditions: 10 days
# Procedure, shortened: as §1
# blackgrass [13] = assay: Test C postemergence; type: in vivo, Alopecurus myosuroides; conditions: 10 days
# Procedure, shortened: as §1
# corn [14] = assay: Test C postemergence; type: in vivo, Zea mays; conditions: 10 days
# Procedure, shortened: as §1
# green foxtail [15] = assay: Test C postemergence; type: in vivo, Setaria viridis; conditions: 10 days
# Procedure, shortened: as §1
# kochia [16] = assay: Test C postemergence; type: in vivo, Bassia scoparia; conditions: 10 days
# Procedure, shortened: as §1
# oat, wild [17] = assay: Test C postemergence; type: in vivo, Avena fatua; conditions: 10 days
# Procedure, shortened: as §1
# pigweed, palmer [18] = assay: Test C postemergence; type: in vivo, Amaranthus palmeri; conditions: 10 days
# Procedure, shortened: as §1
# ragweed [19] = assay: Test C postemergence; type: in vivo, Ambrosia artemisiifolia; conditions: 10 days
# Procedure, shortened: as §1
# ryegrass, Italian [20] = assay: Test C postemergence; type: in vivo, Lolium multiflorum; conditions: 10 days
# Procedure, shortened: as §1
# soybean [21] = assay: Test C postemergence; type: in vivo, Glycine max; conditions: 10 days
# Procedure, shortened: as §1
# wheat [22] = assay: Test C postemergence; type: in vivo, Triticum aestivum; conditions: 10 days
# Procedure, shortened: as §1
# galium = assay: Test C postemergence; type: in vivo, Galium aparine; conditions: 10 days
# Procedure, shortened: as §1
# horseweed = assay: Test C postemergence; type: in vivo, Erigeron canadensis; conditions: 10 days
# Procedure, shortened: as §1
# barnyardgrass [23] = assay: Test D flooded paddy test; type: in vivo, Echinochloa crus-galli; conditions: 250 g ai/ha, applied to paddy water, visual rating after 13 to 14 days, scale 0 to 100 (0 no effect, 100 complete control)
# Procedure, shortened: (§2)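 Plants grown to the 2-leaf stage; pots flooded to 3 cm above soil at treatment and held at that depth throughout. Test compounds applied directly to the paddy water. After 13 to 14 days in a greenhouse, response was rated visually versus controls on a 0 (no effect) to 100 (complete control) scale.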
# ducksalad = assay: Test D flooded paddy test; type: in vivo, Heteranthera limosa; conditions: 250 g ai/ha, applied to paddy water, visual rating after 13 to 14 days, scale 0 to 100 (0 no effect, 100 complete control)
# Procedure, shortened: as §2
# rice = assay: Test D flooded paddy test; type: in vivo, Oryza sativa; conditions: 250 g ai/ha, applied to paddy water, visual rating after 13 to 14 days, scale 0 to 100 (0 no effect, 100 complete control)
# Procedure, shortened: as §2
# sedge, umbrella = assay: Test D flooded paddy test; type: in vivo, Cyperus difformis; conditions: 250 g ai/ha, applied to paddy water, visual rating after 13 to 14 days, scale 0 to 100 (0 no effect, 100 complete control)
# Procedure, shortened: as §2
# [24] = Preemergence, 500 g ai/ha, visual rating after 10 days
# [25] = Test C, preemergence, 125 g ai/ha
# [26] = 125 g ai/ha, postemergence, 0 to 100 scale, 0 no effect, 100 complete control
# [27] = Postemergence, 500 g ai/ha, visual 0 to 100 scale (0 no effect, 100 complete control)
structure (smiles),measurement,setting,value
COc1c(C)cc(-n2cnc(C(C)C)n2)cc1C(=O)N1C[C@H](C)Oc2c(Cl)cccc21 [Compound 260],"Plant response rating, Barnyardgrass",barnyardgrass [1]; [24],90
same,Barnyardgrass plant response rating,barnyardgrass [1]; [25],70
same,"Plant response rating, Blackgrass",blackgrass [2]; [24],80
same,Blackgrass plant response rating,blackgrass [2]; [25],60
same,"Plant response rating, Corn",corn [3]; [24],10
same,Corn plant response rating,corn [3]; [25],0
same,"Plant response rating, Foxtail, Green",green foxtail [4]; [24],100
same,"Foxtail, Green plant response rating",green foxtail [4]; [25],100
same,"Plant response rating, Kochia",kochia [5]; [24],80
same,Kochia plant response rating,kochia [5]; [25],60
same,"Plant response rating, Oat, Wild","oat, wild [6]; [24]",90
same,"Oat, Wild plant response rating","oat, wild [6]; [25]",30
same,"Plant response rating, Pigweed, Palmer","pigweed, palmer [7]; [24]",100
same,"Pigweed, Palmer plant response rating","pigweed, palmer [7]; [25]",40
same,"Plant response rating, Ragweed",ragweed [8]; [24],40
same,Ragweed plant response rating,ragweed [8]; [25],0
same,"Plant response rating, Ryegrass, Italian","ryegrass, Italian [9]; [24]",90
same,"Ryegrass, Italian plant response rating","ryegrass, Italian [9]; [25]",80
same,"Plant response rating, Soybean",soybean [10]; [24],40
same,Soybean plant response rating,soybean [10]; [25],10
same,"Plant response rating, Wheat",wheat [11]; [24],20
same,Wheat plant response rating,wheat [11]; [25],20
same,"Plant response rating, Barnyardgrass",barnyardgrass [12]; [26],10
same,"Plant response rating, Barnyardgrass",barnyardgrass [12]; [27],50
same,"Plant response rating, Blackgrass",blackgrass [13]; [26],20
same,"Plant response rating, Blackgrass",blackgrass [13]; [27],30
same,"Plant response rating, Corn",corn [14]; [26],10
same,"Plant response rating, Corn",corn [14]; [27],60
same,"Plant response rating, Foxtail, Green",green foxtail [15]; [26],10
same,"Plant response rating, Foxtail, Green",green foxtail [15]; [27],60
same,"Plant response rating, Kochia",kochia [16]; [26],60
same,"Plant response rating, Kochia",kochia [16]; [27],90
same,"Plant response rating, Oat, Wild","oat, wild [17]; [26]",30
same,"Plant response rating, Oat, Wild","oat, wild [17]; [27]",50
same,"Plant response rating, Pigweed, Palmer","pigweed, palmer [18]; [26]",10
same,"Plant response rating, Pigweed, Palmer","pigweed, palmer [18]; [27]",50
same,"Plant response rating, Ragweed",ragweed [19]; [26],0
same,"Plant response rating, Ragweed",ragweed [19]; [27],0
same,"Plant response rating, Ryegrass, Italian","ryegrass, Italian [20]; [26]",60
same,"Plant response rating, Ryegrass, Italian","ryegrass, Italian [20]; [27]",60
same,"Plant response rating, Soybean",soybean [21]; [26],100
same,"Plant response rating, Soybean",soybean [21]; [27],100
same,"Plant response rating, Wheat",wheat [22]; [26],20
same,"Plant response rating, Wheat",wheat [22]; [27],20
same,"Plant response rating, Galium",galium; [26],90
same,"Plant response rating, Galium",galium; [27],100
same,"Plant response rating, Horseweed",horseweed; [26],0
same,"Plant response rating, Horseweed",horseweed; [27],10
same,"Plant response rating, Barnyardgrass (Flood)",barnyardgrass [23],0
same,"Plant response rating, Ducksalad (Flood)",ducksalad,0
same,"Plant response rating, Rice (Flood)",rice,0
same,"Plant response rating, Sedge, Umbrella (Flood)","sedge, umbrella",0
